# Results reported in patent US12564194B2, “Herbicide mixture, herbicidal composition, method and kit for controlling undesired vegetation” (Adama Agan Ltd., priority 2020, dated 2026).
# Experiments:
# Type in all cases: in vivo
# [1] = system: Aegilops tauschii; test: Soil sealing treatment pot experiment for controlling Aegilops tauschii (Example 1); conditions: for control effect on Aegilops tauschii: single active ingredient, summary of Table 2
# From the text: (§1) Referring to an article of Colby, S. R. i.e., Calculation of the synergistic and antagonistic response of herbicide combinations. Weeds 1967, 15, pp. 20-22 (which is incorporated herein in its entirety by reference), the theoretical value E0 of a given mixture of three active ingredients may be predicted according to the following equation, then evaluating whether there is synergy.
# (§2) [formula] • wherein: • E0 is the theoretical fresh weight survival rate for the mixture of pyroxasulfone, chlorotoluron and […]; • X is the measured fresh weight survival rate for pyroxasulfone used alone in the same dosage as that in the mixture; • Y is the measured fresh weight survival rate for chlorotoluron used alone in the same dosage as that in the mixture; • Z is the measured fresh weight survival rate for mesosulfuron-methyl used alone in the same dosage as that in the mixture. • E is the measured fresh weight survival rate for the mixture of pyroxasulfone, chlorotoluron and mesosulfuron-methyl. • E0-E value is calculated to evaluate the combined effect of pyroxasulfone, chlorotoluron and mesosulfuron-methyl on the selected weeds.
# (§3) In this example, the herbicidal activity of a mixture of pyroxasulfone, chlorotoluron and mesosulfuron-methyl for soil sealing treatment to control Aegilops tauschii is investigated by a pot experiment method under the conditions of a glass greenhouse. This example is carried out in accordance with “NY/T 1155.4-2006 Guidelines for Indoor Bioassay Tests of Pesticides, Herbicides Part 4: Activity Determination Tests, Stem and Leaf Spray Method”.
# (§4) • Pyroxasulfone: pyroxasulfone (850 g/Kg, WG) from Adama Agan LTD. • Chlorotoluron: chlorotoluron (90 wt %, WG) from Adama Agan LTD. • Mesosulfuron-methyl: Sigma (30 g/L, OD) from Bayer AG. • Test location: Greenhouse of Institute of Plant Protection, Shandong Academy of Agricultural Sciences • Cultivation of test materials: The test soil is formed by mixing the 20 cm layer loam on the ground surface and the culture medium in a ratio of 3:1 as cultivation soil.
# (§5) The test weeds are cultivated in a glass greenhouse at a temperature of 15-30° C. and natural light. A certain amount of Aegilops tauschil seeds are sown in a plastic pot with a diameter of 9 cm, covering with 1-2 mm soil, and putting them in an enamel dish filled with water. The bottom infiltration method is used to water them, waiting for the water to seep to the soil surface, and then transferring to a glass greenhouse for cultivation. The agents are applied on the second day after sowing Aegilops tauschii seeds.
# (§6) For each active ingredient, the multiple dilution method is used to obtain the other five lower dosages from the highest dosage. A certain amount of agent is measured by pipette or balance, adding it directly to the water, and then diluting it to the required dosage by the multiple dilution method.
# (§7) Spraying treatment: ASS-4 automatic control spraying system with a fan-shaped nozzle is used indoors to spray agent, the running speed is adjusted based on nozzle pressure, flow rate, etc. to spray 50 mL of chemical solution on the actual spray area of 1.1 m^2 (equivalent to 30 liters per mu), arranging the plastic pots to be processed on the spraying table evenly, and spraying evenly. The spraying pressure is 0.35 MPa, and the flow rate of the fan-shaped nozzle is 800 mL/min, spraying in order from low dosage to high dosage. Each treatment is repeated 3 times. After spraying, let it dry for one day, placing it in a glass greenhouse, and watering it regularly to keep moist.
# Application time and frequency: the experiment is conducted on the second day after sowing Aegilops tauschii seeds, and the soil is evenly sprayed. The application time is Mar. 10, 2020, with one application.
# Weed investigation method and time: after applying the agent, the symptoms of weed damage (such as growth inhibition, chlorosis, deformity, etc.) are recorded in detail. […]
# [2] = system: Aegilops tauschii; test: Soil sealing treatment pot experiment for controlling Aegilops tauschii, more mixing ratios (Example 3)
# From the text: as §1, §2, §3, §4, §5, §6, §7
# Weed investigation method and time: after applying the agent, the symptoms of weed damage (such as growth inhibition, chlorosis, deformity, etc.) are recorded in detail. After 35 days, the fresh weight of aerial part of the weeds in each treatment is weighed, and the measured fresh weight inhibition rate and the measured fresh weight survival rate for each treatment are calculated according to the following equations: […]
# [3] = system: Lolium multiflorum Lamk; test: Soil sealing treatment pot experiment for controlling Lolium multiflorum Lamk (Example 2); conditions: 35 days
compound,measurement,setting,value
"Cc1ccc(NC(=O)N(C)C)cc1Cl [chlorotoluron, 3-(3-chloro-4-methylphenyl)-N,N-dimethylurea]",Measured fresh weight survival rate (%) - E,"[1]; 70.3125 gai/ha, 35 days",102.6%
same,Measured fresh weight survival rate (%) - E,"[1]; 140.625 gai/ha, 35 days",101.3%
same,Measured fresh weight survival rate (%) - E,"[1]; 281.25 gai/ha, 35 days",92.21%
same,Measured fresh weight survival rate (%) - E,"[1]; 562.5 gai/ha, 35 days",81.82%
same,Measured fresh weight survival rate (%) - E,"[1]; 1125 gai/ha, 35 days",72.73%
same,Measured fresh weight survival rate (%) - E,"[1]; 2250 gai/ha, 35 days",36.36%
same,inhibition at 70.3125 g/ha,"[1]; Aegilops tauschii, soil, 840 h, 70.3125 gai/ha, 35 days, read-out: Measured fresh weight inhibition rate (%)",-2.6%
same,inhibition at 140.625 g/ha,"[1]; Aegilops tauschii, soil, 840 h, 140.625 gai/ha, 35 days, read-out: Measured fresh weight inhibition rate (%)",-1.3%
same,inhibition at 281.25 g/ha,"[1]; Aegilops tauschii, soil, 840 h, 281.25 gai/ha, 35 days, read-out: Measured fresh weight inhibition rate (%)",7.79%
same,inhibition at 562.5 g/ha,"[1]; Aegilops tauschii, soil, 840 h, 562.5 gai/ha, 35 days, read-out: Measured fresh weight inhibition rate (%)",18.2%
same,inhibition at 1125 g/ha,"[1]; Aegilops tauschii, soil, 840 h, 1125 gai/ha, 35 days, read-out: Measured fresh weight inhibition rate (%)",27.3%
same,inhibition at 2250 g/ha,"[1]; Aegilops tauschii, soil, 840 h, 2250 gai/ha, 35 days, read-out: Measured fresh weight inhibition rate (%)",63.6%
same,control effect on Aegilops tauschii,[1],certain effect
same,Actual fresh weight survival rate (%) - E,[2]; 562.5 gai/ha,80.2%
same,Actual fresh weight survival rate (%) - E,[2]; 1125 gai/ha,72.4%
same,Actual fresh weight survival rate (%) - E,[2]; 2250 gai/ha,52.6%
same,inhibition at 562.5 g/ha,"[2]; Aegilops tauschii, soil, 562.5 gai/ha, read-out: Actual fresh weight inhibition rate %",19.8%
same,inhibition at 1125 g/ha,"[2]; Aegilops tauschii, soil, 1125 gai/ha, read-out: Actual fresh weight inhibition rate %",27.6%
same,inhibition at 2250 g/ha,"[2]; Aegilops tauschii, soil, 2250 gai/ha, read-out: Actual fresh weight inhibition rate %",47.4%
same,Measured fresh weight survival rate (%) - E,[3]; 70.3125 gai/ha,96.7%
same,Measured fresh weight survival rate (%) - E,[3]; 140.625 gai/ha,91.21%
same,Measured fresh weight survival rate (%) - E,[3]; 281.25 gai/ha,87.91%
same,Measured fresh weight survival rate (%) - E,[3]; 562.5 gai/ha,83.52%
same,Measured fresh weight survival rate (%) - E,[3]; 1125 gai/ha,25.27%
same,Measured fresh weight survival rate (%) - E,[3]; 2250 gai/ha,0%
same,inhibition at 70.3125 g/ha,"[3]; Lolium multiflorum, soil, 840 h, 70.3125 gai/ha, read-out: Measured fresh weight inhibition rate (%)",3.3%
same,inhibition at 140.625 g/ha,"[3]; Lolium multiflorum, soil, 840 h, 140.625 gai/ha, read-out: Measured fresh weight inhibition rate (%)",8.79%
same,inhibition at 281.25 g/ha,"[3]; Lolium multiflorum, soil, 840 h, 281.25 gai/ha, read-out: Measured fresh weight inhibition rate (%)",12.1%
same,inhibition at 562.5 g/ha,"[3]; Lolium multiflorum, soil, 840 h, 562.5 gai/ha, read-out: Measured fresh weight inhibition rate (%)",16.5%
same,inhibition at 1125 g/ha,"[3]; Lolium multiflorum, soil, 840 h, 1125 gai/ha, read-out: Measured fresh weight inhibition rate (%)",74.7%
same,inhibition at 2250 g/ha,"[3]; Lolium multiflorum, soil, 840 h, 2250 gai/ha, read-out: Measured fresh weight inhibition rate (%)",100%
"COC(=O)c1ccc(CNS(C)(=O)=O)cc1S(=O)(=O)NC(=O)Nc1nc(OC)cc(OC)n1 [mesosulfuron-methyl, 2-[3-(4,6-dimethoxypyrimidin-2-yl)ureasulfonyl]-4-methylsulfonamide methyl benzoate]",Measured fresh weight survival rate (%) - E,"[1]; 1.25 gai/ha, 35 days",96.1%
same,Measured fresh weight survival rate (%) - E,"[1]; 2.5 gai/ha, 35 days",100%
same,Measured fresh weight survival rate (%) - E,"[1]; 5 gai/ha, 35 days",94.81%
same,Measured fresh weight survival rate (%) - E,"[1]; 10 gai/ha, 35 days",83.12%
same,Measured fresh weight survival rate (%) - E,"[1]; 20 gai/ha, 35 days",71.43%
same,Measured fresh weight survival rate (%) - E,"[1]; 40 gai/ha, 35 days",88.31%
same,inhibition at 1.25 g/ha,"[1]; Aegilops tauschii, soil, 840 h, 1.25 gai/ha, 35 days, read-out: Measured fresh weight inhibition rate (%)",3.9%
same,inhibition at 2.5 g/ha,"[1]; Aegilops tauschii, soil, 840 h, 2.5 gai/ha, 35 days, read-out: Measured fresh weight inhibition rate (%)",0%
same,inhibition at 5 g/ha,"[1]; Aegilops tauschii, soil, 840 h, 5 gai/ha, 35 days, read-out: Measured fresh weight inhibition rate (%)",5.19%
same,inhibition at 10 g/ha,"[1]; Aegilops tauschii, soil, 840 h, 10 gai/ha, 35 days, read-out: Measured fresh weight inhibition rate (%)",16.9%
same,inhibition at 20 g/ha,"[1]; Aegilops tauschii, soil, 840 h, 20 gai/ha, 35 days, read-out: Measured fresh weight inhibition rate (%)",28.6%
same,inhibition at 40 g/ha,"[1]; Aegilops tauschii, soil, 840 h, 40 gai/ha, 35 days, read-out: Measured fresh weight inhibition rate (%)",11.7%
same,control effect on Aegilops tauschii,[1],substantively ineffective
same,Actual fresh weight survival rate (%) - E,[2]; 5 gai/ha,93.1%
same,Actual fresh weight survival rate (%) - E,[2]; 10 gai/ha,88.8%
same,Actual fresh weight survival rate (%) - E,[2]; 20 gai/ha,76.7%
same,inhibition at 5 g/ha,"[2]; Aegilops tauschii, soil, 5 gai/ha, read-out: Actual fresh weight inhibition rate %",6.9%
same,inhibition at 10 g/ha,"[2]; Aegilops tauschii, soil, 10 gai/ha, read-out: Actual fresh weight inhibition rate %",11.2%
same,inhibition at 20 g/ha,"[2]; Aegilops tauschii, soil, 20 gai/ha, read-out: Actual fresh weight inhibition rate %",23.3%
same,Measured fresh weight survival rate (%) - E,[3]; 1.25 gai/ha,96.7%
same,Measured fresh weight survival rate (%) - E,[3]; 2.5 gai/ha,94.51%
same,Measured fresh weight survival rate (%) - E,[3]; 5 gai/ha,83.52%
same,Measured fresh weight survival rate (%) - E,[3]; 10 gai/ha,60.44%
same,Measured fresh weight survival rate (%) - E,[3]; 20 gai/ha,39.56%
same,Measured fresh weight survival rate (%) - E,[3]; 40 gai/ha,6.59%
same,inhibition at 1.25 g/ha,"[3]; Lolium multiflorum, soil, 840 h, 1.25 gai/ha, read-out: Measured fresh weight inhibition rate (%)",3.3%
same,inhibition at 2.5 g/ha,"[3]; Lolium multiflorum, soil, 840 h, 2.5 gai/ha, read-out: Measured fresh weight inhibition rate (%)",5.49%
same,inhibition at 5 g/ha,"[3]; Lolium multiflorum, soil, 840 h, 5 gai/ha, read-out: Measured fresh weight inhibition rate (%)",16.5%
same,inhibition at 10 g/ha,"[3]; Lolium multiflorum, soil, 840 h, 10 gai/ha, read-out: Measured fresh weight inhibition rate (%)",39.6%
same,inhibition at 20 g/ha,"[3]; Lolium multiflorum, soil, 840 h, 20 gai/ha, read-out: Measured fresh weight inhibition rate (%)",60.4%
same,inhibition at 40 g/ha,"[3]; Lolium multiflorum, soil, 840 h, 40 gai/ha, read-out: Measured fresh weight inhibition rate (%)",93.4%
